From patent US4259235A, “Tricyclic nitrogenous compounds having string plant growth regulating properties” (BASF Aktiengesellschaft, priority 1977, dated 1981)
Read-outs that look alike come from different tables or passages of the source.

Tests used:
Lolium mult. = assay: Herbicidal action, pre- and postemergence application in the greenhouse; assay type: in vivo; conditions: Lolium, post-emergence, read-out: % damage
Protocol: (§1) Plastic flowerpots having a volume of 300 cm^3 were filled with a sandy loam and the test plants placed therein (either as seed, as vegetatively reproduced species, or as potted plants, e.g., vines). For preemergence treatment, the active ingredients were suspended or emulsified in water as vehicle and sprayed onto the surface of the soil immediately after sowing by means of finely distributing nozzles. The potted vines were treated by spraying them with the correspondingly diluted liquor. For postemergence treatment, the agents were, as stated above, sprayed in water onto the leaves of the test plants, some liquor also falling onto the soil. In some special cases, solid active ingredients were first dissolved in dimethylformamide and then applied in a total liquor amount of 400 liters of water per hectare. For the postemergence treatment, the plants were first grown to a height of from 3 to 10 cm before being treated. With grasses, the first growth was cut, and the new growth treated 2 to 3 days after cutting. The temperature requirements of the plants were taken into account by placing them in cooler or warmer sections of the greenhouse. The experiments were run for from 4 to 6 weeks, during which time the plants were tended and their reaction to the various treatments was assessed.
(§2) The application rates are given in kg/ha of active ingredient, regardless of the method of application and the amount of water used.
(§3) A 0 to 100 scale was used for the evaluation, 0 denoting normal emergence or no damage (or no inhibition), and 100 denoting non-emergence or complete destruction of the plants. A distinction should be made in the influence on growth between desired changes without any appreciable disadvantageous phytotoxic effects (e.g., purely growth-regulating effects) and those of a phytotoxic herbicical character.

Mentha piper. = assay: as above; assay type: in vivo; conditions: post-emergence; 3.0 kg/ha POST; read-out: % damage
Protocol: as §1, §2, §3

Sinapis alba = assay: as above; assay type: in vivo; conditions: post-emergence, 3.0 kg/ha PRE, read-out: % damage
Protocol: as §1, §2, §3

Ipom. spp. = assay: as above; assay type: in vivo, Ipomoea spp.; conditions: Ipomoea, post-emergence; 3.0 kg/ha POST; read-out: % damage
Protocol: as §1, §2, §3

Galium apar. = assay: as above; assay type: in vivo, Galium aparine; conditions: post-emergence, 3.0 kg/ha POST, read-out: % damage
Protocol: as §1, §2, §3

Arachys hypogaea = assay: Shoot growth, postemergence treatment in the greenhouse (table 25); assay type: in vivo
Protocol: as §1, §2, §3

Oryza sativa = assay: as above; assay type: in vivo
Protocol: as §1, §2, §3

Poa pratensis = assay: as above; assay type: in vivo
Protocol: as §1, §2, §3

Arachys hypog. = assay: Shoot inhibition, pre- and postemergence treatment (table 28); assay type: in vivo, Arachys hypogaea; conditions: post-emergence, read-out: % shoot inhibition
Protocol: as §1, §2, §3

Glycine max = assay: as above; assay type: in vivo; conditions: post-emergence, read-out: % shoot inhibition
Protocol: as §1, §2, §3

Poa prat. = assay: as above; assay type: in vivo; conditions: Poa pratensis, post-emergence, read-out: % shoot inhibition
Protocol: as §1, §2, §3

Tritic. aestiv. = assay: as above; assay type: in vivo; conditions: post-emergence, read-out: % shoot inhibition
Protocol: as §1, §2, §3

Euphorbia genic. = assay: as above; assay type: in vivo, Euphorbia geniculata; conditions: post-emergence, read-out: % shoot inhibition
Protocol: as §1, §2, §3

Cynodon dactyl. = assay: as above; assay type: in vivo, Cynodon dactylon; conditions: post-emergence, from seed, read-out: % shoot inhibition
Protocol: as §1, §2, §3

Hordeum vulg. = assay: as above; assay type: in vivo, Hordeum vulgare; conditions: post-emergence, read-out: % shoot inhibition
Protocol: as §1, §2, §3

Cynodon dact. (seed) = assay: Herbicidal action, pre- and postemergence application in the greenhouse; assay type: in vivo, Cynodon dactylon; conditions: appln. rate 2 kg/ha, POST line
Protocol: as §1, §2, §3

Euphorbia geniculata [1] = assay: Inhibition of shoot growth by growth regulators, pre- and postemergence (table 27); assay type: in vivo; conditions: Euphorbia heterophylla, post-emergence, read-out: shoot growth inhibition (%)
Protocol: as §1, §2, §3

Medicago sativa = assay: as above; assay type: in vivo; conditions: post-emergence, read-out: shoot growth inhibition (%)
Protocol: as §1, §2, §3

Cynodon dactylon = assay: Shoot growth, postemergence treatment in the greenhouse (table 26); assay type: in vivo; conditions: from seed
Protocol: as §1, §2, §3

Euphorbia geniculata [2] = assay: as above; assay type: in vivo
Protocol: as §1, §2, §3

Hordeum vulgare = assay: as above; assay type: in vivo
Protocol: as §1, §2, §3

How did the pest or weed control at 3000 g/ha (Lolium mult.; 3.0 kg/ha POST) turn out when `FC(F)(F)c1cccc(NC2C(Br)C3CC2C2N=NC32)c1` (stereo not drawn) was run?
The pest or weed control at 3000 g/ha was 100%.

And the pest or weed control at 3000 g/ha (Lolium mult.; 3.0 kg/ha PRE)?
Its pest or weed control at 3000 g/ha is 100%.

What about the pest or weed control at 3000 g/ha (Mentha piper.) of the same molecule?
Its pest or weed control at 3000 g/ha is 95%.

And the pest or weed control at 3000 g/ha (Sinapis alba)?
The pest or weed control at 3000 g/ha was 95%.

What about the pest or weed control at 3000 g/ha (Ipom. spp.) of the same molecule?
Its pest or weed control at 3000 g/ha is 100%.

And the pest or weed control at 3000 g/ha (Galium apar.)?
The pest or weed control at 3000 g/ha was 90%.

What does the source list for `C1C2C3N=NC3C1C1OC21` (stereo not drawn) [drawing 433]?
Shoot length (Arachys hypogaea; 1.0 kg/ha): 10 cm; Shoot length (Arachys hypogaea; 2.0 kg/ha): 10 cm; Shoot length (Arachys hypogaea; 4.0 kg/ha): 10 cm; Shoot length (Oryza sativa; 1.0 kg/ha): 16 cm; Shoot length (Oryza sativa; 2.0 kg/ha): 16 cm; Shoot length (Oryza sativa; 4.0 kg/ha): 16 cm; Leaf scorch (footnote x) (Poa pratensis; 1.0, 2.0 and 4.0 kg/ha): limited leaf scorch; Shoot length (Poa pratensis; 1.0 kg/ha): 2 cm; Shoot length (Poa pratensis; 2.0 kg/ha): 2 cm; Shoot length (Poa pratensis; 4.0 kg/ha): 2 cm

Which results are given for `c1ccc(C2=NNC3C4CC(C5N=NC45)C23)cc1` (stereo not drawn) [drawing 438]?
inhibition at 1000 g/ha (Arachys hypog.; 1.0 kg/ha POST): 20%; inhibition at 1000 g/ha (Arachys hypog.; 1.0 kg/ha PRE): 10%; inhibition at 2000 g/ha (Arachys hypog.; 2.0 kg/ha POST): 30%; inhibition at 2000 g/ha (Arachys hypog.; 2.0 kg/ha PRE): 10%; inhibition at 1000 g/ha (Glycine max; 1.0 kg/ha PRE): 10%; inhibition at 2000 g/ha (Glycine max; 2.0 kg/ha PRE): 25%; inhibition at 1000 g/ha (Poa prat.; 1.0 kg/ha PRE): 60%; inhibition at 2000 g/ha (Poa prat.; 2.0 kg/ha PRE): 60%; inhibition at 1000 g/ha (Tritic. aestiv.; 1.0 kg/ha POST): 10%; inhibition at 1000 g/ha (Tritic. aestiv.; 1.0 kg/ha PRE): 30%; inhibition at 2000 g/ha (Tritic. aestiv.; 2.0 kg/ha POST): 20%; inhibition at 2000 g/ha (Tritic. aestiv.; 2.0 kg/ha PRE): 30%; inhibition at 1000 g/ha (Euphorbia genic.; 1.0 kg/ha PRE): 10%; inhibition at 2000 g/ha (Euphorbia genic.; 2.0 kg/ha PRE): 30%; inhibition at 1000 g/ha (Cynodon dactyl.; 1.0 kg/ha POST): 13%; inhibition at 1000 g/ha (Cynodon dactyl.; 1.0 kg/ha PRE): 10%; inhibition at 2000 g/ha (Cynodon dactyl.; 2.0 kg/ha POST): 25%; inhibition at 2000 g/ha (Cynodon dactyl.; 2.0 kg/ha PRE): 10%; inhibition at 1000 g/ha (Hordeum vulg.; 1.0 kg/ha POST): 30%; inhibition at 1000 g/ha (Hordeum vulg.; 1.0 kg/ha PRE): 25%; inhibition at 2000 g/ha (Hordeum vulg.; 2.0 kg/ha POST): 30%; inhibition at 2000 g/ha (Hordeum vulg.; 2.0 kg/ha PRE): 25%

`Cc1ccc(NC2C(Br)C3CC2C2N=NC32)cc1` (stereo not drawn) was tested. Which pest or weed control at 3000 g/ha (Lolium mult.; 3.0 kg/ha POST) did it give?
Its pest or weed control at 3000 g/ha is 100%.

What about the pest or weed control at 3000 g/ha (Lolium mult.; 3.0 kg/ha PRE) of the same molecule?
The pest or weed control at 3000 g/ha was 95%.

What about the pest or weed control at 3000 g/ha (Mentha piper.) of the same molecule?
Its pest or weed control at 3000 g/ha is 100%.

And the pest or weed control at 3000 g/ha (Sinapis alba)?
Its pest or weed control at 3000 g/ha is 100%.

And the pest or weed control at 3000 g/ha (Ipom. spp.)?
The pest or weed control at 3000 g/ha was 100%.

What about the “% damage” value (Cynodon dact. (seed)) of the same molecule?
Its value is 100%.

What about the pest or weed control at 3000 g/ha (Galium apar.) of the same molecule?
Its pest or weed control at 3000 g/ha is 80%.

With `CN(C)NC(=O)CCC(=O)O` [drawing 434] as the molecule, how does the Shoot length (Arachys hypogaea; 1.0 kg/ha) read?
Its Shoot length is 12 cm.

And the Shoot length (Arachys hypogaea; 2.0 kg/ha)?
Its Shoot length is 5 cm.

What about the Shoot length (Arachys hypogaea; 4.0 kg/ha) of the same molecule?
The Shoot length was 5 cm.

What about the Shoot length (Poa pratensis; 1.0 kg/ha) of the same molecule?
Its Shoot length is 4 cm.

What about the Shoot length (Poa pratensis; 2.0 kg/ha) of the same molecule?
Its Shoot length is 4 cm.

What about the Shoot length (Poa pratensis; 4.0 kg/ha) of the same molecule?
Its Shoot length is 4 cm.

Which results are given for `c1ccc(C2=NOC3C4CC(C5N=NC45)C23)cc1` (stereo not drawn) [drawing 437]?
inhibition at 500 g/ha (Euphorbia geniculata [1]; 0.5 kg/ha PRE): 33%; inhibition at 1000 g/ha (Euphorbia geniculata [1]; 1.0 kg/ha PRE): 40%; inhibition at 2000 g/ha (Euphorbia geniculata [1]; 2.0 kg/ha POST): 30%; inhibition at 4000 g/ha (Euphorbia geniculata [1]; 4.0 kg/ha POST): 30%; inhibition at 2000 g/ha (Medicago sativa; 2.0 kg/ha POST): 20%; inhibition at 4000 g/ha (Medicago sativa; 4.0 kg/ha POST): 20%

`ClC1C2CC(C3N=NC23)C1Nc1nccs1` (stereo not drawn) was tested. Which pest or weed control at 3000 g/ha (Lolium mult.; 3.0 kg/ha POST) did it give?
The pest or weed control at 3000 g/ha was 100%.

What about the pest or weed control at 3000 g/ha (Mentha piper.) of the same molecule?
Its pest or weed control at 3000 g/ha is 100%.

And the pest or weed control at 3000 g/ha (Ipom. spp.)?
The pest or weed control at 3000 g/ha was 80%.

What about the pest or weed control at 3000 g/ha (Galium apar.) of the same molecule?
The pest or weed control at 3000 g/ha was 80%.

What does the source list for `Clc1ccc(NC2C(Cl)C3CC2C2N=NC32)cc1` (stereo not drawn) [drawing 435]?
Shoot length (Cynodon dactylon; 1.0 kg/ha): 5 cm; Shoot length (Cynodon dactylon; 2.0 kg/ha): 5 cm; Shoot length (Euphorbia geniculata [2]; 0.5 kg/ha): 9 cm; Shoot length (Euphorbia geniculata [2]; 1.0 kg/ha): 9 cm; Shoot length (Euphorbia geniculata [2]; 2.0 kg/ha): 9 cm; Shoot length (Hordeum vulgare; 0.5 kg/ha): 12.5 cm; Shoot length (Hordeum vulgare; 1.0 kg/ha): 12 cm; Shoot length (Hordeum vulgare; 2.0 kg/ha): 12 cm
